US10239849B2 (Merck Sharp & Dohme Corp., priority 2015, dated 2019)

Experiments:
[1] = target: T1, glutathione-S-transferase (GST) tagged LXRbeta LBD (ligand binding domain) (Homo sapiens, UniProt P55055); test: LanthaScreen TR-FRET Liver X Receptor Coactivator Assay, LXR beta-LBD; format: biochemical; settings: for Emax: efficacy in relation to reference dual agonist T1317, read-out: LXR beta activity at max dose (%) (Emax); for EC50: potency (Inflection Point) of co-activator recruitment, TR-FRET, read-out: LXR beta IP
T1 construct: purchased Invitrogen pv4658.pps
T1 sequence (P55055 222-460 limits assumed): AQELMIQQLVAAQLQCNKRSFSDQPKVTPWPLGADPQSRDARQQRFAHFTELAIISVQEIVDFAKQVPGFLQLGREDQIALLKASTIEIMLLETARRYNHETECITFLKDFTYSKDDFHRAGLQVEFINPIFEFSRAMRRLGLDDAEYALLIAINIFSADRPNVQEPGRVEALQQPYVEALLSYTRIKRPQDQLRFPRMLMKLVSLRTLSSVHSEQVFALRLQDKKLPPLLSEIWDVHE
Outline: (§1)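 TR-FRET read-out of coactivator recruitment: fluorescein-coactivator peptide plus Tb-anti-GST antibody added to LBD preincubated with compound; incubated at RT before reading.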

[2] = target: T2, glutathione-S-transferase (GST) tagged LXRalpha LBD (ligand binding domain) (Homo sapiens, UniProt Q13133); test: LanthaScreen TR-FRET Liver X Receptor Coactivator Assay, LXR alpha-LBD; format: biochemical; settings: for Emax: efficacy in relation to reference dual agonist T1317, read-out: LXR alpha activity at max dose (%) (Emax); for LXR alpha IP (nM) / EC50: potency (Inflection Point) of co-activator recruitment, TR-FRET; for EC50: read-out: LXR alpha IP
T2 construct: purchased Invitrogen pv4655
T2 sequence (Q13133 209-447 limits assumed): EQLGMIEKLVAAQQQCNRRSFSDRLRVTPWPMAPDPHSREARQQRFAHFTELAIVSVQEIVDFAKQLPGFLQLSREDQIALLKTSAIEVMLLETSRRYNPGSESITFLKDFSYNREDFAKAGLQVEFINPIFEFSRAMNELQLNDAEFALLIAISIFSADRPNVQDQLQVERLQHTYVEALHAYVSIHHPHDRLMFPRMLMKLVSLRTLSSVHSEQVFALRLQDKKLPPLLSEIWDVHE
Outline: as §1

SMILES | Emax [1] | EC50 [1] | Emax [2] | LXR alpha IP (nM) [2] | EC50 [2]
CN(C)C(=O)c1ccc(-c2cnc(N3CCN(C(=O)C4(c5ccccc5)CCC4)CC3)c(C#N)c2)cc1Cl [Example 2-23, 2-chloro-4-(5-cyano-6-{4-[(1-phenylcyclobutyl)carbonyl]piperazin-1-yl}pyridin-3-yl)-N,N-dimethylbenzamide] | 97% | 43 nM | 47% |  | 1140 nM
CN(C)C(=O)c1ccc(-c2cnc(N3CCN(C(=O)C4CCCCO4)CC3)c(C#N)c2)cc1Cl (stereo not shown) [Example 2-6, 2-chloro-4-{5-cyano-6-[4-(tetrahydro-2H-pyran-2-ylcarbonyl)piperazin-1-yl]pyridin-3-yl}-N,N-dimethylbenzamide] | 49% | 1560 nM | 16% | No IP | 
CN(C)C(=O)c1ccc(-c2ccc(N3CC4CCC(C3)N4C(=O)OC(C)(C)C)cc2)cc1Cl [Example 8-3, tert-butyl 3-[3′-chloro-4′-(dimethylcarbamoyl)biphenyl-4-yl]-3,8-diazabicyclo[3.2.1]octane-8-carboxylate] | 87% | 189 nM | 64% |  | 11700 nM
CN(C)C(=O)c1ccc(-c2cnc(N3CCN(S(=O)(=O)c4ccccc4)CC3)c(C#N)c2)cc1Cl [Example 1-16, 2-chloro-4-{5-cyano-6-[4-(phenylsulfonyl)piperazin-1-yl]pyridin-3-yl}-N,N-dimethylbenzamide] | 69% | 144 nM | 63% |  | 50500 nM
CN(C)C(=O)c1ccc(-c2cnc(N3C4CCC3C3CCC4N3C(=O)OC(C)(C)C)c(C#N)c2)cc1Cl [Example 8-11, tert-butyl 10-{5-[3-chloro-4-(dimethylcarbamoyl)phenyl]-3-cyanopyridin-2-yl}-9,10-diazatricyclo[4.2.1.1~2,5~]decane-9-carboxylate] | 57% | 1050 nM | 41% |  | 10900 nM
CN(C)C(=O)c1ccc(-c2cnc(N3CCN(C(=O)c4c(F)cccc4Cl)CC3)c(C#N)c2)cc1Cl [Example 2-21, 2-chloro-4-(6-{4-[(2-chloro-6-fluorophenyl)carbonyl]piperazin-1-yl}-5-cyanopyridin-3-yl)-N,N-dimethylbenzamide] | 59% | 147 nM | 41% |  | 6290 nM
CN(C)C(=O)c1ccc(-c2cnc(N3CCN(C(=O)Cc4cn5ccsc5n4)CC3)c(C#N)c2)cc1Cl [Example 2-24, 2-chloro-4-{5-cyano-6-[4-(imidazo[2,1-b][1,3]thiazol-6-ylacetyl)piperazin-1-yl]pyridin-3-yl}-N,N-dimethylbenzamide] | 104% | 463 nM | 42% |  | 29600 nM
CN(C)C(=O)c1ccc(-c2cnc(N3CCN(C(=O)[C@](C)(O)C(F)(F)F)CC3)c(C#N)c2)cc1Cl [Example 2-16, 2-chloro-4-(5-cyano-6-{4-[(2S)-3,3,3-trifluoro-2-hydroxy-2-methylpropanoyl]piperazin-1-yl}pyridin-3-yl)-N,N-dimethylbenzamide] | 94% | 242 nM | 58% |  | 13000 nM

Further lines, results first:

Emax [1] | EC50 [1] | Emax [2] | LXR alpha IP (nM) [2] | EC50 [2] | SMILES
80% | 226 nM | 14% | No IP |  | CN(C)C(=O)c1ccc(-c2ccc(N3CCN(C(=O)[C@](O)(c4ccccc4)C(F)(F)F)CC3)cc2)cc1Cl [Example 2-27, 3-chloro-N,N-dimethyl-4′-{4-[(2R)-3,3,3-trifluoro-2-hydroxy-2-phenylpropanoyl]piperazin-1-yl}biphenyl-4-carboxamide]
93% | 102 nM | 68% |  | 2980 nM | CC(C)(C)OC(=O)N1CCN(c2ncc(-c3ccc(C(=O)N(CCO)CCO)c(Cl)c3)cc2C#N)CC1 [Example 5-19, tert-butyl 4-(5-{4-[bis(2-hydroxyethyl)carbamoyl]-3-chlorophenyl}-3-cyanopyridin-2-yl)piperazine-1-carboxylate]
98% | 12 nM | 30% |  | 1930 nM | CNC(=O)c1ccc(-c2cnc(N3CCN(C(=O)[C@](O)(c4ccccc4)C(F)(F)F)CC3)c(C#N)c2)cc1Cl [Example 2-28, 2-chloro-4-(5-cyano-6-{4-[(2R)-3,3,3-trifluoro-2-hydroxy-2-phenylpropanoyl]piperazin-1-yl}pyridin-3-yl)-N-methylbenzamide]
86% | 63 nM | 55% |  | 936 nM | CN(C)C(=O)c1ccc(-c2ccc(N3CCCN(C(=O)OC(C)(C)C)CC3)cc2)cc1Cl [Example 8-1, tert-butyl 4-[3′-chloro-4′-(dimethylcarbamoyl)biphenyl-4-yl]-1,4-diazepane-1-carboxylate]
55% | 39 nM | 30% |  | 4330 nM | CN(C)C(=O)c1ccc(-c2cnc(N3CCN(C(=O)OCC4(C)CC4)CC3)c(C#N)c2)cc1Cl [Example 3-12, (1-methylcyclopropyl)methyl 4-{5-[3-chloro-4-(dimethylcarbamoyl)phenyl]-3-cyanopyridin-2-yl}piperazine-1-carboxylate]
59% | 62 nM | 49% |  | 2360 nM | C#Cc1cc(-c2ccc(C(=O)N(C)C)c(Cl)c2)cnc1N1CCN(C(=O)OC(C)(C)C)CC1 [Example 9-5]
92% | 21 nM | 50% |  | 6610 nM | CN(C)C(=O)c1ccc(-c2cnc(N3CCN(C(=O)OCc4ccccc4F)CC3)c(C#N)c2)cc1Cl [Example 3-6, 2-fluorobenzyl 4-{5-[3-chloro-4-(dimethylcarbamoyl)phenyl]-3-cyanopyridin-2-yl}piperazine-1-carboxylate]
80% | 1390 nM | 9% | No IP |  | CN(C)C(=O)c1ccc(-c2ccc(N3CCN(C(=O)c4ccccc4C(F)(F)F)CC3)cc2)cc1Cl [Example 4-17, 3-chloro-N,N-dimethyl-4′-(4-{[2-(trifluoromethyl)phenyl]carbonyl}piperazin-1-yl)biphenyl-4-carboxamide]
87% | 39 nM | 79% |  | 1570 nM | CN(C)C(=O)c1ccc(-c2ccc(N3CC4CCC3CN4C(=O)OC(C)(C)C)c(Cl)c2)cc1Cl (stereo not shown) [Example 4-3, tert-butyl 5-[3,3′-dichloro-4′-(dimethylcarbamoyl)biphenyl-4-yl]-2,5-diazabicyclo[2.2.2]octane-2-carboxylate]
68% | 64 nM | 38% |  | 882 nM | CN(C)C(=O)c1ccc(-c2cnc(N3CC4CCC3CN4C(=O)OC(C)(C)C)c(C#N)c2)cc1Cl (stereo not shown) [Example 8-8, tert-butyl 5-{5-[3-chloro-4-(dimethylcarbamoyl)phenyl]-3-cyanopyridin-2-yl}-2,5-diazabicyclo[2.2.2]octane-2-carboxylate]
81% | 205 nM | 36% |  | 5130 nM | CCCC(O)(C(=O)N1CCN(c2ncc(-c3ccc(C(=O)N(C)C)c(Cl)c3)cc2C#N)CC1)C(F)(F)C(F)(F)F (stereo not shown) [Example 2-36, 2-chloro-4-(5-cyano-6-{4-[2-hydroxy-2-(pentafluoroethyl)pentanoyl]piperazin-1-yl}pyridin-3-yl)-N,N-dimethylbenzamide]
